Results: US7528252B2, “Derivatives of triazoly-imidazopyridine useful as ligands of the adenosine A2a receptor and their use as medicaments” (Sigma-Tau Industrie Farmaceutiche Riunite S.p.A., priority 2002, dated 2009)

Tests used:
M1 = M1 (Homo sapiens, UniProt P11229); assay: Receptor binding study, M1; conditions: mean values, n = 2, read-out: percent inhibition of control specific binding
human A2b receptor = target: T1, human A2b receptor (Homo sapiens, UniProt P29275); assay: Affinity towards the adenosine A2b receptor ([3H]-DPCPX binding, HEK 293 membranes); conditions: read-out: A2b Ki (nM) ± sd
T1 construct: expressed in transfected cells; host or cells: HEK 293
T1 sequence (P29275 1-332): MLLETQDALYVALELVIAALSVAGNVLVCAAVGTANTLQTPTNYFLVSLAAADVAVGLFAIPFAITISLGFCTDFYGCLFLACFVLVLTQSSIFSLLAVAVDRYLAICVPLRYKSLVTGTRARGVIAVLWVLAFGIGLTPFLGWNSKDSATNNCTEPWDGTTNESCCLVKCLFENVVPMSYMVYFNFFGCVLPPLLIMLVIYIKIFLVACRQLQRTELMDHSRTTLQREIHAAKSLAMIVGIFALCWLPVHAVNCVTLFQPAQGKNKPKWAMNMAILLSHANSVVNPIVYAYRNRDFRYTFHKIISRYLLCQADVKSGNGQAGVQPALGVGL
Protocol: The interactive capacity of each product towards the adenosine A2b receptor was evaluated using membranes from HEK 293 cells stably expressing the human A2b receptor subtype exclusively.
Non-specific binding was measured in the presence of NECA (50 μM).
In binding studies for each compound, eight different concentrations (from 10^−5 M to 10^−12 M) were evaluated in order to obtain competition curves. By means of non-linear regression analysis of the competition curves, the IC50 values, which express the binding affinity of each product, were determined. Using the Cheng Prusoff equation (Ki=IC50/1+(L/Kd)) Ki values were calculated through which the affinity of each product studied, for the receptor investigated, is expressed.

human A2a receptor = human A2a receptor (Homo sapiens, UniProt P29274); assay: biochemical
human A2a receptor, sequence (P29274 whole entry): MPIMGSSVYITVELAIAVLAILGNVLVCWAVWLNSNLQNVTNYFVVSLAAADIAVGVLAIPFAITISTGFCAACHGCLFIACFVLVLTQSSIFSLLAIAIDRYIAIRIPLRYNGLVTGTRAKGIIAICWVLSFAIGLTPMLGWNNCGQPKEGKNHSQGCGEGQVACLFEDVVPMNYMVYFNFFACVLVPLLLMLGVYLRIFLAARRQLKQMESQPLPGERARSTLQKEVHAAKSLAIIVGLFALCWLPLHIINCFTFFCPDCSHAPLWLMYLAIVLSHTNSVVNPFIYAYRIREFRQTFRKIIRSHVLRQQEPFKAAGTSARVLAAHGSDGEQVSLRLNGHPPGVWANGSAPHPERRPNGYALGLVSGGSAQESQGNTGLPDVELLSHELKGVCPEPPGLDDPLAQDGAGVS

D2 = D2 (Homo sapiens, UniProt P14416); assay: Receptor binding study, D2; conditions: mean values, n = 2, read-out: percent inhibition of control specific binding
D2, sequence (P14416 whole entry): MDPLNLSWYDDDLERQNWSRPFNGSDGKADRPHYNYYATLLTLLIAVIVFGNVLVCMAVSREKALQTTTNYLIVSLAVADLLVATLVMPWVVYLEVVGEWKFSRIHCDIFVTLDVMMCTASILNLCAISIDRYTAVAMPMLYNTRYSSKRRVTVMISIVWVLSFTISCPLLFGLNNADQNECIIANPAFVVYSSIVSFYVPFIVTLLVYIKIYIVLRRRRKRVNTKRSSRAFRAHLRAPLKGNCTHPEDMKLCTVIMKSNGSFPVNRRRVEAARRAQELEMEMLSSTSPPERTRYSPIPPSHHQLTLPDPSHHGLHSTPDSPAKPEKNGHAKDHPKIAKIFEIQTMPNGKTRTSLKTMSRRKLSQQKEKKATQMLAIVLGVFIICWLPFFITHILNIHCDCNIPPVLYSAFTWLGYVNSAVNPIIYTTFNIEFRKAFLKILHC

GABAb = GABAb (Homo sapiens, UniProt Q9UBS5); assay: Receptor binding study, GABAb; conditions: mean values, n = 2, read-out: percent inhibition of control specific binding
Opiate (non-selective) = assay: Receptor binding study, Opiate (non-selective); conditions: 1 μM; mean values, n = 2
DA transporter = DA transporter (Homo sapiens, UniProt Q01959); assay: Receptor binding study, DA transporter; conditions: mean values, n = 2, read-out: percent inhibition of control specific binding
DA transporter, sequence (Q01959 whole entry, species assumed): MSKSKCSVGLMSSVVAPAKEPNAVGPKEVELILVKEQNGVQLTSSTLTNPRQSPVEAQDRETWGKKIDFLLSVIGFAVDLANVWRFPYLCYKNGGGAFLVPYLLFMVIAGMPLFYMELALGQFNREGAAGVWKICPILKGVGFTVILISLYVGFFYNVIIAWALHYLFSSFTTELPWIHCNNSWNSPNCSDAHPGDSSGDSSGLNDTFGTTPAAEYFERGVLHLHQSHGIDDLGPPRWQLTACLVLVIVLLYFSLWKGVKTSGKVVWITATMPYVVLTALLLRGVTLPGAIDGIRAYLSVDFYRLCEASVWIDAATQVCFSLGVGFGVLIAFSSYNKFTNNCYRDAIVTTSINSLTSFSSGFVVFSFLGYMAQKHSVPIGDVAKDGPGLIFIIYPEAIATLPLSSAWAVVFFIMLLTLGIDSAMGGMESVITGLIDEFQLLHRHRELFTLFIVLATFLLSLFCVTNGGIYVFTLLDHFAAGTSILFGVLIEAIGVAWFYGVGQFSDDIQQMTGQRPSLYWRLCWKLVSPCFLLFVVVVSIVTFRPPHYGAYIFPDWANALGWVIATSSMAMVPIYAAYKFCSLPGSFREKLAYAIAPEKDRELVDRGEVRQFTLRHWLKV

D3 = D3 (Homo sapiens, UniProt P35462); assay: Receptor binding study, D3; conditions: mean values, n = 2, read-out: percent inhibition of control specific binding
D3, sequence (P35462 whole entry): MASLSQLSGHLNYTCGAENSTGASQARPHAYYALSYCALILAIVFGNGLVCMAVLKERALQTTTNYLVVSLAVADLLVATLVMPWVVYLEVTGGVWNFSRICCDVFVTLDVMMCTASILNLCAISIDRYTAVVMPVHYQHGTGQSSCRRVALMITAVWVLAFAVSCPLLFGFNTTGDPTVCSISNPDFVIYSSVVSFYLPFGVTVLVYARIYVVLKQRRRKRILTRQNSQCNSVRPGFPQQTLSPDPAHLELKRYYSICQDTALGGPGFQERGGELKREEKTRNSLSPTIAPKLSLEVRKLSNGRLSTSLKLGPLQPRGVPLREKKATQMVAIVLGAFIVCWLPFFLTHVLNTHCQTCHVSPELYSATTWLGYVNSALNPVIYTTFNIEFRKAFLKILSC

5-HT2A = 5-HT2A (Homo sapiens, UniProt P28223); assay: Receptor binding study, 5-HT2A; conditions: mean values, n = 2, read-out: percent inhibition of control specific binding
5-HT2A, sequence (P28223 whole entry, species assumed): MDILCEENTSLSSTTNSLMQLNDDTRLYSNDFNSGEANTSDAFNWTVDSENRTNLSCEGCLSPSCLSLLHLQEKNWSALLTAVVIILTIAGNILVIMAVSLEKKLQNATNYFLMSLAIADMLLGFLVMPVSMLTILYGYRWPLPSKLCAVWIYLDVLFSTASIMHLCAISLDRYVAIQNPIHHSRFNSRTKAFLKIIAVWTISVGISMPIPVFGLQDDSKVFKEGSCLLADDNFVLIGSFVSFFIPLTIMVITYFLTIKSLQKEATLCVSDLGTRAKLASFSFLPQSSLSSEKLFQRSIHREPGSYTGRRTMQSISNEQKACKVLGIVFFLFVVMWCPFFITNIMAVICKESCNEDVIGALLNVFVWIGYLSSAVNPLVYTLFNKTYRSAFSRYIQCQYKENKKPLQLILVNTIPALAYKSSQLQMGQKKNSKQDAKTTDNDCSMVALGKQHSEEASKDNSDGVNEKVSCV

M2 = M2 (Homo sapiens, UniProt P08172); assay: Receptor binding study, M2; conditions: mean values, n = 2, read-out: percent inhibition of control specific binding
M2, sequence (P08172 whole entry): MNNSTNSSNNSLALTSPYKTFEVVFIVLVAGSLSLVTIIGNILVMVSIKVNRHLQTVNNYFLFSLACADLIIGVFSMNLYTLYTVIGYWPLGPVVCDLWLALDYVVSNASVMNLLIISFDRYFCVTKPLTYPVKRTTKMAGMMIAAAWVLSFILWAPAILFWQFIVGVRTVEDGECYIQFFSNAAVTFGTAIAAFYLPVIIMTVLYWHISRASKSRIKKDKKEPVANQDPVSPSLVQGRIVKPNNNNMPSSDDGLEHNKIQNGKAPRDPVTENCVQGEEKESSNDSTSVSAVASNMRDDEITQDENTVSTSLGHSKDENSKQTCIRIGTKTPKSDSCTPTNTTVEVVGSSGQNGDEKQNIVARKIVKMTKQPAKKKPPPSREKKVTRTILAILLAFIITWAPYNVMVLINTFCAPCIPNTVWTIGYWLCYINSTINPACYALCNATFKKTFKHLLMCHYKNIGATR

5-HT2C (h) = 5-HT2C (h) (Homo sapiens, UniProt P28335); assay: Receptor binding study, 5-HT2C; conditions: mean values, n = 2, read-out: percent inhibition of control specific binding
5-HT2C (h), sequence (P28335 33-458): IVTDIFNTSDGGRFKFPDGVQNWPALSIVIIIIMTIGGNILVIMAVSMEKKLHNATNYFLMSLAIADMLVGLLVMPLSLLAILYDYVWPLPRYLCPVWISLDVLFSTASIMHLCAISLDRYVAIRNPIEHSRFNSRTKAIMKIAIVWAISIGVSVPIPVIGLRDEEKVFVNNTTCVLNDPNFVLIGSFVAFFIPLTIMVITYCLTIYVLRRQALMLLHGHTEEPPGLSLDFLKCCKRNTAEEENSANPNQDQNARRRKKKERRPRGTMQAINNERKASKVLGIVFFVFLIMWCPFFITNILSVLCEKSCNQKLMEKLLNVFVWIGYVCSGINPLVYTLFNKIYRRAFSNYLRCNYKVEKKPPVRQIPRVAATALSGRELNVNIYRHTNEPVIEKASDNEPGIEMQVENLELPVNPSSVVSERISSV

CD1 male mice = assay: Effects on spontaneous motor activity in mice; type: in vivo; conditions: for Horizontal activity / Vertical activity: mean ± s.e.
Protocol: For this study, type CD1 male mice (n=8) were used. The effects of the products under study and of the reference compounds were evaluated using an apparatus consisting of a Plexiglas cage (40 cm×40 cm) surrounded by a series of photocells which monitor the movements of the animals placed inside, connected a computerised system, through which, the signals are collected and later elaborated.
Tests were carried out, after endoperitoneal administration of the products. 15 minutes after treatment, the treated animals, alternating with the controls, were placed inside the cage so as to record their spontaneous movements over a total period of 45 minutes broken down into two observation intervals (15′-45′ and 45′-60′, with respect to the time after treatment).
To examine the possible effects of the compounds studied on motor activity, the following parameters were considered: horizontal activity, vertical activity: total distance.
Except for CGS 21680 (reference compound, described in EP 0 277 917, Ciba-Geigy) which was dissolved in 0.9% NaCl, the products studied were solubilised in DMSO and then diluted in Cremofor EL and 0.9% NaCl (final concentrations: DMSO 15%, Cremofor EL 15%, NaCl 0.9%.

[1] = target: T2, human A1 subtype adenosine receptor (Homo sapiens, UniProt P30542); assay: Affinity towards the adenosine A1 receptor ([3H]-DPCPX binding, CHO-K1 membranes); conditions: read-out: A1 Ki (nM) ± sd
T2 construct: expressed in transfected cells; host or cells: CHO-K1
T2 sequence (P30542 1-326): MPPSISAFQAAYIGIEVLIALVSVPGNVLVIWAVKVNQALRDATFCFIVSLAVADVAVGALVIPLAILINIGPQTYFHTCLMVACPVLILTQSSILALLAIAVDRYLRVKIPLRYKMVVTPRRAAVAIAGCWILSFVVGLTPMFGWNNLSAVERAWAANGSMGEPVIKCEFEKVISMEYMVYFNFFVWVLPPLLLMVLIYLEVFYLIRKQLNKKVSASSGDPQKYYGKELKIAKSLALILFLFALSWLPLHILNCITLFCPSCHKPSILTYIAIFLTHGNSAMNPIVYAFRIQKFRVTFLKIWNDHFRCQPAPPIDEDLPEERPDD

PCP = assay: Receptor binding study, PCP; conditions: 1 μM; mean values, n = 2
D4.4 (h) = D4.4 (h) (Homo sapiens, UniProt P21917); assay: Receptor binding study, D4.4; conditions: mean values, n = 2, read-out: percent inhibition of control specific binding
D4.4 (h), sequence (P21917 whole entry): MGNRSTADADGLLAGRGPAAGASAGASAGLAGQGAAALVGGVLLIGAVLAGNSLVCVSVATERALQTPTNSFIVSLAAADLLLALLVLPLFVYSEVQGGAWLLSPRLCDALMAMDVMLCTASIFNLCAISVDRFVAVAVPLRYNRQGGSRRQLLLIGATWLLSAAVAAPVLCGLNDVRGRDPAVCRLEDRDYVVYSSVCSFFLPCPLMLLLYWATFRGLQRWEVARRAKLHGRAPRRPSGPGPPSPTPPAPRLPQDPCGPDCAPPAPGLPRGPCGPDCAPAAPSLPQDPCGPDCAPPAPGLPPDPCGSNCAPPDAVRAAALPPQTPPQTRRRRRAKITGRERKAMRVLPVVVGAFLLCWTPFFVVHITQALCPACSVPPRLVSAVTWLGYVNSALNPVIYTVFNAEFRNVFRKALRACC

AMPA = assay: Receptor binding study, AMPA; conditions: 1 μM; mean values, n = 2
[2] = target: T3, human A3 subtype adenosine receptor (Homo sapiens, UniProt P0DMS8); assay: Affinity towards the adenosine A3 receptor ([125I]AB-MECA binding, HEK-293 membranes); conditions: test compounds; read-out: A3 (h) Ki
T3 construct: expressed in transfected cells; host or cells: HEK-293
T3 sequence (P0DMS8 whole entry): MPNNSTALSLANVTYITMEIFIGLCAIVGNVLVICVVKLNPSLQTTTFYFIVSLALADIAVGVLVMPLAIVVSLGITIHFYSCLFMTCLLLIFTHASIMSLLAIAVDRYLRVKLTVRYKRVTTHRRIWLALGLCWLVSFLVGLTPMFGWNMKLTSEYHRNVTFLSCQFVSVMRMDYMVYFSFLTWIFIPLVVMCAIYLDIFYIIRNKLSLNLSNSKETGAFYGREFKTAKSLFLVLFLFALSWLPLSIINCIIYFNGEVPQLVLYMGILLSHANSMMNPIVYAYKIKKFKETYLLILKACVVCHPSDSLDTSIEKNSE

mice = assay: Forced swim test in mice; type: in vivo; conditions: 60 minutes before the test; 4 minutes of testing period
Protocol: Mice were dropped individually into glass cylinders (height: 25 cm, internal diameter 10 cm) containing 10 cm water, maintained at 23° C. The immobility time (sec) was measured during 4 minutes of test. A mouse was judged to be immobile when it remained floating in the water, making only the necessary movements to keep its head above water. Test compound ST 1535 was administered orally to mice, 60 minutes before the test.

[3] = 2.5 mg/kg endoperitoneal, interval 15′-45′ from treatment
[4] = 2.5 mg/kg endoperitoneal, interval 45′-60′ from treatment
[5] = 5 mg/kg endoperitoneal, interval 15′-45′ from treatment
[6] = 5 mg/kg endoperitoneal, interval 45′-60′ from treatment
[7] = 10 mg/kg endoperitoneal, interval 15′-45′ from treatment
[8] = 10 mg/kg endoperitoneal, interval 45′-60′ from treatment
[9] = 20 mg/kg endoperitoneal, interval 15′-45′ from treatment
[10] = 20 mg/kg endoperitoneal, interval 45′-60′ from treatment

M1, sequence (P11229 whole entry): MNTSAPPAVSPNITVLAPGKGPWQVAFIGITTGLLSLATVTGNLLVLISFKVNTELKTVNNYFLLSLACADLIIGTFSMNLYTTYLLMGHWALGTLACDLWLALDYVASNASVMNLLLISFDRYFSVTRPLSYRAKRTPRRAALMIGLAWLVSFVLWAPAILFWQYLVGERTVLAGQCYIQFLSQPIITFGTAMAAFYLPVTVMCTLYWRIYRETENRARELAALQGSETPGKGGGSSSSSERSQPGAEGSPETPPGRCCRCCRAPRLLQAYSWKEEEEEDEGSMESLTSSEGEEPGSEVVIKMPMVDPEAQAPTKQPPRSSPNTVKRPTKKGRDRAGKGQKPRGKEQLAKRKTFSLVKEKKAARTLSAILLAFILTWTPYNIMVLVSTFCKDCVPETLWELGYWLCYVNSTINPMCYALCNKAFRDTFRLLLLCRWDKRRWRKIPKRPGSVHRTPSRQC

Row | SMILES | inhibition at 1 µM (M1) [%] | Ki (human A2b receptor) [nM] | inhibition at 1 µM (D2) [%] | inhibition at 1 µM (GABAb) [%] | percent inhibition of control specific binding (Opiate (non-selective)) | inhibition at 1 µM (DA transporter) [%] | inhibition at 1 µM (D3) [%] | inhibition at 1 µM (5-HT2A) [%] | inhibition at 1 µM (M2) [%] | inhibition at 1 µM (5-HT2C (h)) [%] | Ki [1] [nM] | percent inhibition of control specific binding (PCP) | inhibition at 1 µM (D4.4 (h)) [%] | percent inhibition of control specific binding (AMPA) | Ki [2] [nM] | also measured
1 | CCCCc1nc(N)c2nc(-n3nccn3)n(C)c2n1 [ST 1535, 2-butyl-9-methyl-8-(2H-1,2,3-triazol-2-yl)-9H-purine-6-ylamine] | < 10 | 627 ± 45 | < 10 | < 10 | — (The symbol — indicates an inhibition of less than 10%.) | < 10 | < 10 | < 10 | < 10 | < 10 | 107 ± 40 | — (The symbol — indicates an inhibition of less than 10%.) | < 10 | — (The symbol — indicates an inhibition of less than 10%.) | 1580 | Ki (human A2a receptor): 2.29 ± 0.58 nM; Horizontal activity (CD1 male mice; [3]): 5386 ± 505; Vertical activity (CD1 male mice; [3]): 282 ± 79; Horizontal activity (CD1 male mice; [4]): 1693 ± 266; Vertical activity (CD1 male mice; [4]): 68 ± 21; Horizontal activity (CD1 male mice; [5]): 7549 ± 508; Vertical activity (CD1 male mice; [5]): 249 ± 41; Horizontal activity (CD1 male mice; [6]): 2353 ± 199; Vertical activity (CD1 male mice; [6]): 76 ± 16; Horizontal activity (CD1 male mice; [7]): 7434 ± 526; Vertical activity (CD1 male mice; [7]): 219 ± 64; Horizontal activity (CD1 male mice; [8]): 2784 ± 345; Vertical activity (CD1 male mice; [8]): 71 ± 32; Horizontal activity (CD1 male mice; [9]): 10524 ± 670; Vertical activity (CD1 male mice; [9]): 486 ± 84; Horizontal activity (CD1 male mice; [10]): 3321 ± 363; Vertical activity (CD1 male mice; [10]): 148 ± 36; dose from which a significant increase of the spontaneous motor activity in mice is observed (CD1 male mice; endoperitoneal): ≥ 5 mg/kg; time of immobility, forced swim test (FIG. 5) (mice): reduces, in a dose-dependant manner, the time of immobility of the animal
2 | CCCCCc1nc(N)c2nc(-n3nccn3)n(C)c2n1 [ST 2097, 9-methyl-2-pentyl-8-(2H-1,2,3-triazol-2-yl)-9H-purine-6-ylamine] | < 10 | 153 ± 13 | < 10 | < 10 | — (The symbol — indicates an inhibition of less than 10%.) | < 10 | < 10 | < 10 | < 10 | < 10 | 26.2 ± 6.55 | — (The symbol — indicates an inhibition of less than 10%.) | < 10 | — (The symbol — indicates an inhibition of less than 10%.) | 519 | –
